Assay results from patent publication US20230372350A1, “ASTROCYTIC TRPA1 CHANNEL INHIBITION AS A NOVEL NEUROPROTECTIVE THERAPEUTIC TARGET IN THE PRODROMAL PHASES OF ALZHEIMER'S DISEASE” (priority 2020, published 2023).
“Also recorded” adds a separate entry of the source.

Columns and labels:
[1] = test system: astrocytes of the hippocampus (stratum radiatum), TRPA1 channel; assay: Acute application on acute hippocampal slices: astrocyte calcium imaging; assay type: cell-based, mouse; settings: 40 μM, APP/PS1-21 mice 1-month old
Protocol: (§1) Coronal sections of the hippocampus (thickness 300 μm) were prepared from APP/PS1-21 transgenic mice (1 month and 3 months old) or from WT mice from the same litter. The mice were sacrificed by decerebration and decapitation. The brain was quickly removed and sectioned in ice-cold ACSF containing (in mM) : 2.5 KCl, 7 MgCl2, 0.5 CaCl2, 1.2 NaHPO4, 25 NaHCO3, 11D-glucose and 234 sucrose bubbled with 95% of O2 and 5% of CO2 with a VT1200S vibratome (Leica, Germany). The sections containing the hippocampus were placed in ACSF containing (in mM) : 126 NaCl, 2.5 KCl, 1.2 MgCl2, 2.5 CaCl2, 1.2 NaH2PO4 bubbled with 95% of O2 and 5% of CO2 and supplemented with 1 mM of sodium pyruvate at room temperature for a recovery period.
300 μm coronal sections were transferred to a chamber allowing constant perfusion with ACSF at room temperature, bubbling with 95% of O2 and 5% of CO2 on the upright microscope tray (Eclipse E600 FN, Nikon, France) equipped with a 60× (NA 1.0) water immersion objective and infrared interference contrast optical systems with a CCD camera (Optronis VX45, Germany). […] The signals were amplified by Axopatch 200B, sampled by a Digidata 1440A interface and recorded by the pClamp8 software (Molecular Devices, USA). […] The input resistance was calculated by measuring the current in response to a 10 mV pulse of 80 ms duration near the end of the voltage command.

[2] = test system: hippocampal astrocytes of APP/PS1-21 and WT mice; assay: Chronic intraperitoneal treatment: astrocyte calcium imaging (Fluo-4) in hippocampal slices; assay type: in vivo, mouse
Protocol: The used model is a transgenic murine model obtained on a C57BL/6J genetic background which co-expresses the mutated human form of the amyloid precursor protein (mutated APP KM670/671NL) and of presenilin 1 (mutated PS1 L166P) under the control of the neural promoter Thy1. The presence of these two mutations allows increased production of the Aβ peptide from the 14th postnatal day. This leads to cerebral amyloidosis with the appearance of the first senile plaques around 8 postnatal weeks. This amyloid pathology is accompanied by inflammatory gliosis (microgliosis and astrogliosis detectable from 4 months), dendritic spine dystrophy and tau hyperphosphorylation (around 8 months). Cognitive behavioral disorders, and in particular of learning and spatial memory, are developed in around 6 to 8 months. This model was set-up and described by Rebecca Radde in 2006 (Radde et al., EMBO reports, 2006) and is widely used by the scientific community. This model is available in the animal facility of the Institut des Neurosciences de Grenoble and has been bred by the inventors since 2014.
This solution is then diluted to 1 μg/μl in an isotonic solution containing 1% Pluronic F-127 and 0.9% NaCl. The animals are injected daily intraperitoneally at a dose of 5 mg/kg of body mass. Sterile 0.5 ml BD MicroFine syringes with no dead volume, equipped with a 30G (0.3 mm) needle are used for the injections.
The carrier (10% DMSO, 1% Pluronic F-127, 0.9% NaCl) is used as a control and is also injected daily, according to the same procedure, into the WT and APP/PS1 control animals (carrier groups).
The injection is started from the 14th postnatal day (appearance of the expression of the Thy1gene promoter in the hippocampus, triggering the overexpression of Aβ in the APP/PS1-21 murine model)
as §1
300 μm coronal sections were transferred to a chamber allowing constant perfusion with ACSF at room temperature, bubbling with 95% of O2 and 5% of CO2 on the upright microscope tray (Eclipse E600 FN, Nikon, France) equipped with a 60× (NA 1.0) water immersion objective and infrared interference contrast optical systems with a CCD camera (Optronis VX45, Germany). 8-11 MSΩ glass pipettes (Harvard Apparatus) were filled with an intracellular solution containing (in mM): 105 K-gluconate, 30 KCl, 10 phosphocreatine, 10 HEPES, 4 ATP-Mg, 0.3 GTP-Tris, 0.2 Fluo-4-pentapotassium salt (Life Technologies), adjusted to pH 7.2 with KOH. The signals were amplified by Axopatch 200B, sampled by a Digidata 1440A interface and recorded by the pClamp8 software (Molecular Devices, USA). Astrocytes were identified on the basis of their morphology, their location in the stratum radiatum and a negative resting potential (between −70 and −80 mV). The membrane potential was maintained at −80 mV. The input resistance was calculated by measuring the current in response to a 10 mV pulse of 80 ms duration near the end of the voltage command.

[3] = test system: dendritic spines of CA1 pyramidal neurons, Thy1-eYFP-H-APP/PS1-21 mice; assay: Chronic intraperitoneal treatment: analysis of dendritic spines; assay type: in vivo, mouse; settings: 3 months, treated from 14th postnatal day
Protocol: In some experiments, APP/PS1-21 mice were crossed with the Thy1-eYFP-H murine transgenic line which expresses the fluorescent protein eYFP in specific neuron subpopulations. This solution is then diluted to 1 μg/μl in an isotonic solution containing 1% Pluronic F-127 and 0.9% NaCl. The animals are injected daily intraperitoneally at a dose of 5 mg/kg of body mass. Sterile 0.5 ml BD MicroFine syringes with no dead volume, equipped with a 30G (0.3 mm) needle are used for the injections. The injection is started from the 14th postnatal day (appearance of the expression of the Thy1gene promoter in the hippocampus, triggering the overexpression of Aβ in the APP/PS1-21 murine model) Hippocampal sections from Thy1-eYFP-H-APP/PS1-21 mice were imaged using a Zeiss Airyscan module with a 100× (NA 1.4) Plan Apochromat oil immersion objective. Confocal image stacks (increment of 200 nm) were performed with a voxel size of 0.041×0.041×0.2 μm. The 3D analysis of the spine density, of the spine volume and the spine classification was performed using NeuronStudio software (Icahn School of Medicine at Mount Sinai, USA). The length of individual dendrites was automatically measured as well as the number and volume of associated dendritic spines which were classified as […], thin or mushroom using automated 3D shape classification. For each condition, 10 dendrites were imaged and 700 dendritic spines were analyzed.

[4] = APP/PS1-21 mice, 1-month old, 5 mg/kg i.p. daily from 14th postnatal day
[5] = APP/PS1-21 mice, 3 months, chronic treatment 5 mg/kg i.p.
[6] = WT control mice, 1-month old, 5 mg/kg i.p. daily from 14th postnatal day
[7] = WT mice, 3 months, chronic treatment 5 mg/kg i.p.

Compound: CC(C)c1ccc(NC(=O)Cn2cnc3c2c(=O)n(C)c(=O)n3C)cc1 [HC030031, 2-(1,3-Dimethyl-2,6-dioxo-1,2,3,6-tetrahydro-7H-purin-7-yl)-N-(4-isopropylphenyl)acetamide]
- astrocyte calcium hyperactivity [1]: fully restored; also recorded: inhibited
- calcium event frequency [2, 4]: 0.48±0.02 calcium event/minute
- proportion of active microdomains [2, 4]: 56.1±3.9%
- frequency of calcium events within microdomains [2, 5]: 0.50±0.06 event/minute
- proportion of active microdomains [2, 5]: 49.4±6.4%
- frequency of calcium events within the microdomains [2, 6]: 0.51±0.02 calcium event/min
- proportion of active microdomains [2, 6]: 53.0±2.7%
- frequency of calcium events within microdomains [2, 7]: 0.62±0.04 calcium event/minute
- proportion of active microdomains [2, 7]: 60.2±3.8%
- dendritic spine density [3]: 1.32±0.08 spine/μm
- mushroom-shaped spines [3]: 64.0±1.7%
- thin spines [3]: 26.7±2.0%
